Laboratory results as given in patent US10336733B2, “Aryl acylsulfonamides as BLT1 antagonists” (Merck Sharp & Dohme Corp., priority 2015, dated 2019).

Biological target: human BLT1 receptor (Homo sapiens (Human), UniProt Q15722)
Experiment: BLT-1 cAMP Assay
Type: cell-based
Details: antagonist mode; HEK293 cells recombinantly expressing human BLT1 receptor; forskolin 4 μM and LTB4 2 nM; cAMP detection
Description: The ability of compounds to antagonize the human BLT1 receptor was determined using a kit to measure changes in intracellular cyclic AMP levels (cAMP dynamic assay kit, Cisbio Cat. No. 62AM4PEC). HEK293 cells recombinantly expressing human BLT1 receptor, previously frozen in Recovery Medium (Life Technologies, Cat. No. 12648-010) were thawed and diluted into assay medium (HBSS (Hyclone SH 30268.01), 20 mM HEPES (Gibco 15630-106), 800 μM IBMX (Sigma I5879), 0.1% DTPA BSA (Perkin Elmer CR84-100)). The cell suspension was centrifuged at 200×g for 10 min and then resuspended in fresh assay medium to a density of 2.5×10^5 cells/mL. A Labcyte Echo 550 acoustic dispenser was used to transfer 25 nL of test compound dissolved in DMSO into the wells of a dry 384-well plate (Greiner 784075). All subsequent liquid additions were performed using a BIORAPTR (FRD; Beckman Coulter). Next, 5 μL of cell suspension was added and incubated for 20 min. at 37° C. and 5% CO2 in a humidified plastic tray. To test for agonist activity […] of assay buffer containing forskolin (Sigma F-6886. 4 μM for BLT1) was added and incubated for 30 minutes at 37° C. and 5% CO2 in a humidified plastic tray. To test for antagonist activity 5 μL of assay buffer containing forskolin (Sigma F-6886. 4 μM for BLT1) and either LTB4 (Sigma Aldrich L0517; 2 nM BLT1) was added and incubated for 30 minutes at 37° C. and 5% CO2 in a humidified plastic tray.
The levels of cAMP were detected using the CisBio kit following the manufacturer's instructions: cAMP-d2 vial was reconstituted with distilled water and then diluted accordingly with conjugate & lysis buffer. 5 μL of cAMP-d2 working solution was added to all of the wells of the assay plate. cAMP-Cryptate vial was reconstituted with distilled water and then diluted accordingly with conjugate & lysis buffer. 5 μL of cAMP-Cryptate working solution were added to the assay plate. The assay plate was shaken for 3 minutes and incubated at room temperature for 45 minutes, then read on Perkin Elmer Envision. cAMP standard curve and fit data were plotted using a 4 parameter dose response curve fitting algorithm to fit curve. A 4-parameter curve fit (Max, min, log EC50 and slope) was used to transform fluorescent 665 nm/615 nm ratio signal to cAMP concentration. After normalization to treated and untreated controls, the percent effect of signal at each compound concentration was calculated. The plot of percent effect versus the log of compound concentration was fit with a 4-parameter concentration response equation to calculate EC50 values. Compound concentrations tested were 10 000, 3 333, 1 111, 370.4, 123.4, 41.2, 13.7, 4.6, 1.5 and 0.5 nM with 0.25% residual DMSO.

Sequence of human BLT1 receptor (Q15722 whole entry): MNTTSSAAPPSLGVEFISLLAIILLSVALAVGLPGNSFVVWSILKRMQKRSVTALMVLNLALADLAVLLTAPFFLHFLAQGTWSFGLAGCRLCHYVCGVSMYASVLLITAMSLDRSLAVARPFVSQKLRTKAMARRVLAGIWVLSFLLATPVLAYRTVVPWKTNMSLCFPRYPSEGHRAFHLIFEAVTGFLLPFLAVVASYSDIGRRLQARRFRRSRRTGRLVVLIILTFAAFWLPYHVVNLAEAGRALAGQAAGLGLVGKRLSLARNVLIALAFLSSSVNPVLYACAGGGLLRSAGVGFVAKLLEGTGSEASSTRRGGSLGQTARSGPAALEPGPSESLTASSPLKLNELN

| SMILES | EC50 [nM] |
| --- | --- |
| CC(C)(C)S(=O)(=O)NC(=O)c1ccccc1-c1ccc2c(c1)OC[C@@H](Cc1cscn1)[C@@H]2O (racemic) [Example 32, N-(tert-Butylsulfonyl)-2-((rac-trans)-4-hydroxy-3-(thiazol-4-ylmethyl)chroman-7-yl)benzamide] | 11 |
| CC(C)(C)CS(=O)(=O)NC(=O)c1ccccc1-c1ccc2c(c1)OCC(Cc1ccccn1)C2O (stereo not drawn) [Example 20, 2-((3,4-trans)-4-Hydroxy-3-(pyridin-2-ylmethyl)chroman-7-yl)-N-(neopentylsulfonyl)benzamide] | 44 |
